Experimental data taken from patent US10858344B2, “Hydantoin containing deoxyuridine triphosphatase inhibitors” (CV6 Therapeutics (NI) Limited, priority 2016, dated 2020).

Target: recombinant human deoxyuridine nucleotidohydrolase (dUTPase) (Homo sapiens (Human), UniProt P33316)
Test: fluorescence-based dUTPase inhibition assay
Format: biochemical
Conditions: for % relative inhibition vs. positive control: mean over three concentrations, typically 100, 50 and 25 μmol/L, compared to in-run positive control
From the text: Recombinant human deoxyuridine nucleotidohydrolase (dUTPase) is expressed and purified as described in Ladner R D, Carr S A, Huddleston M J, McNulty D E, Caradonna S J. J Biol Chem. 1996 Mar. 29; 271(13):7752-7. All drugs stocks are aliquoted and diluted as appropriate prior to use. The oligonucelotide primer, templates and fluorophore- and quencher-labeled detection probes are synthesized by Integrated DNA Technologies (Coralville, Iowa), subjected to polyacrylamide gel electrophoresis purification and reconstituted in Omnipur sterile nuclease-free water (EMD Chemicals USA, Gibbstown N.J.) at a stock concentration of 100 μmol/L. The two non-emissive (dark) quenching molecules incorporated into the detection probes include the Iowa black fluorescein quencher (IBFQ; absorption max 531 nm) and ZEN (non-abbreviation; absorption max 532 nm). The fluorescent label utilized is 6-FAM (5′-carboxyfluorescein; excitation max.=494 nm, emission max.=520 nm). Probes are further diluted to a working stock of 10 μmol/L and aliquoted to avoid repeated freeze/thaw cycles. AmpliTaq Gold DNA Polymerase, GeneAmp 10×PCR Buffer 2, MgCl2 and MicroAmp Optical 96-well Reaction Plates are purchased from Applied Biosystems (Carlsbad, Calif.). dNTPs are purchased individually at stock concentrations of 100 mmol/L from New England Biolabs at HPLC-certified >99% purity (Ipswich, Mass.).
Reaction mixtures contained primer, probe and template at an equimolar final concentration of 0.4 μmol/L. Magnesium chloride (MgCl2) is included at a final concentration of 2 mmol/L. Non-limiting dNTPs are included in the reaction mix in excess at a final concentration of 100 μmol/L (dUTP/dTTP is excluded). AmpliTaq Gold DNA polymerase is added at 0.875 U/reaction, 2.5 μl of 10×PCR buffer 2 added and nuclease-free ddH2O added to a final reaction volume of 25 μl. For dUTP inhibition analysis, the volume of ddH2O is further modified to accommodate an additional 1 μl of dUTPase (10 ng/μl) and 1 μl of inhibitor or DMSO control. Thermal profiling and fluorescence detection is performed using a customized thermal program on board a Roche Lightcycler LC480 Instrument II. For analysis of dNTPs, the thermal profile consisted of an 8 min 37° C. step followed by a 10 min 95° C. step to ‘hot-start’ the Taq polymerase and a primer extension time of up to 30 min at 60° C. Raw fluorescence spectra for 6-FAM is measured at specified time intervals to follow assay progression on board a Roche LightCycler 480 Software Version 1.5 and exported and analyzed in Microsoft Excel (Microsoft, Redmond Wash.) and Prism (GraphPad Software, La Jolla Calif.). Fluorescence values for blank reactions (limiting dNTP omitted) are subtracted to give normalized fluorescence units (NFU) to account for background fluorescence.
Test compounds are screened in a fluorescence-based assay. The assay employs a DNA polymerase-based approach utilizing an oligonucleotide template with 3 distinct regions: a 3′ primer binding region, a mid-template dUTP/thymidine triphosphate (TTP) detection region and a 5′ 6-[…] (FAM)-labeled probe binding region that incorporates a black hole quenching moiety. During the reaction, the probe and primer hybridize to the oligonucleotide template to form the template:primer:probe complex. When Taq polymerase binds to the primer in the TPP complex and dUTP is present, successful extension of the nascent strand occurs and the inherent 5′ to 3′ exonuclease activity of Taq polymerase cleaves and displaces the 6-FAM-labeled probe in a 5′ to 3′ direction, releasing the 6-FAM fluorophore from its proximity to the three quenchers. This displacement effectively disrupts the Förster resonance energy transfer (FRET) and the resulting fluorescence detected upon excitation is directly proportional to the amount of the dUTP available in the assay for incorporation. […]

Sequence of recombinant human deoxyuridine nucleotidohydrolase (dUTPase) (P33316 other isoform, or with tags, fused parts or gaps): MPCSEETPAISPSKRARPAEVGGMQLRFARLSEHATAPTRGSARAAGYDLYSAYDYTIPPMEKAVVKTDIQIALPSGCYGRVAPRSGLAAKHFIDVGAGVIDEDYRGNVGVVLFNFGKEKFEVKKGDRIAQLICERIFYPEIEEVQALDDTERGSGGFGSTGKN

Row | Compound | % relative inhibition vs. positive control | IC50
1 | CC(C)COc1cc(C2(NS(=O)(=O)CC/C=C/CN3C(=O)NC(=O)C3(C)C)CC2)ccc1F [118a, (E)-5-(5,5-dimethyl-2,4-dioxoimidazolidin-1-yl)-N-(1-(4-fluoro-3-isobutoxyphenyl)cyclopropyl)pent-3-ene-1-sulfonamide] | 19% | –
2 | CC(C)COc1cc(C2(NS(=O)(=O)CCCCCN3C(=O)NC(=O)C3(C)C)CC2)ccc1F [118b, 5-(5,5-dimethyl-2,4-dioxoimidazolidin-1-yl)-N-(1-(4-fluoro-3-isobutoxyphenyl)cyclopropyl)pentane-1-sulfonamide] | 19% | –
3 | CC1(C)C(=O)NC(=O)N1C/C=C/CCS(=O)(=O)NC1(c2ccc(F)c(OCC3CC3)c2)CC1 [119a, (E)-N-(1-(3-(cyclopropylmethoxy)-4-fluorophenyl)cyclopropyl)-5-(5,5-dimethyl-2,4-dioxoimidazolidin-1-yl)pent-3-ene-1-sulfonamide] | 10% | –
4 | CC1(C)C(=O)NC(=O)N1CCCCCS(=O)(=O)NC1(c2ccc(F)c(OCC3CC3)c2)CC1 [119b, N-(1-(3-(cyclopropylmethoxy)-4-fluorophenyl)cyclopropyl)-5-(5,5-dimethyl-2,4-dioxoimidazolidin-1-yl)pentane-1-sulfonamide] | 23% | –
5 | C[C@H]1C(=O)NC(=O)N1C/C=C/CCS(=O)(=O)NC1(c2cccc(OCC3CC3)c2)CC1 [123a, (S,E)-N-(1-(3-(cyclopropylmethoxy)phenyl)cyclopropyl)-5-(5-methyl-2,4-dioxoimidazolidin-1-yl)pent-3-ene-1-sulfonamide] | 105% | –
6 | C[C@H]1C(=O)NC(=O)N1CCCCCS(=O)(=O)NC1(c2cccc(OCC3CC3)c2)CC1 [123b, (S)—N-(1-(3-(cyclopropylmethoxy)phenyl)cyclopropyl)-5-(5-methyl-2,4-dioxoimidazolidin-1-yl)pentane-1-sulfonamide] | 102% | –
7 | C[C@@H](NS(=O)(=O)C/C=C/CCC1(C)NC(=O)NC1=O)c1ccc(F)c(OCC2CC2)c1 (stereo partly drawn) [127a, (E)-N—((R)-1-(3-(cyclopropylmethoxy)-4-fluorophenyl)ethyl)-5-(4-methyl-2,5-dioxoimidazolidin-4-yl) pent-2-ene-1-sulfonamide] | 37% | –
8 | C[C@@H](NS(=O)(=O)CCCCCC1(C)NC(=O)NC1=O)c1ccc(F)c(OCC2CC2)c1 (stereo partly drawn) [127b, N—((R)-1-(3-(cyclopropylmethoxy)-4-fluorophenyl)ethyl)-5-(4-methyl-2,5-dioxoimidazolidin-4-yl) pentane-1-sulfonamide] | 71% | –
9 | C[C@@H](NS(=O)(=O)CC/C=C/CN1C(=O)NC(=O)[C@@H]1C)c1ccc(F)c(OCC2CC2)c1 [Compound 107a, (E)-N—((R)-1-(3-(cyclopropylmethoxy)-4-fluorophenyl)ethyl)-5-((S)-5-methyl-2,4-dioxoimidazolidin-1-yl)pent-3-ene-1-sulfonamide] | 153% | –
10 | C[C@@H](NS(=O)(=O)CCCCCN1C(=O)NC(=O)[C@@H]1C)c1ccc(F)c(OCC2CC2)c1 [Compound 107b, N—((R)-1-(3-(cyclopropylmethoxy)-4-fluorophenyl)ethyl)-5-((S)-5-methyl-2,4-dioxoimidazolidin-1-yl)pentane-1-sulfonamide] | 154% | –
11 | CC(C)COc1cc([C@@H](C)NS(=O)(=O)CC/C=C/CN2C(=O)NC(=O)[C@H]2C)ccc1F [Compound 108a, (E)-N—((R)-1-(4-fluoro-3-isobutoxyphenyl)ethyl)-5-((R)-5-methyl-2,4-dioxoimidazolidin-1-yl)pent-3-ene-1-sulfonamide] | 123% | –
12 | CC(C)COc1cc([C@@H](C)NS(=O)(=O)CCCCCN2C(=O)NC(=O)[C@H]2C)ccc1F [Compound 108b, N—((R)-1-(4-fluoro-3-isobutoxyphenyl)ethyl)-5-((R)-5-methyl-2,4-dioxoimidazolidin-1-yl)pentane-1-sulfonamide] | 94% | –
13 | O=C1CN(C/C=C/CCCNS(=O)(=O)c2cccc(OCC3CC3)c2)C(=O)N1 [Example 79, (E)-3-(cyclopropylmethoxy)-N-(6-(2,4-dioxoimidazolidin-1-yl)hex-4-en-1-yl)benzenesulfonamide] | 139% | –
14 | O=C1CN(CCCCCCNS(=O)(=O)c2cccc(OCC3CC3)c2)C(=O)N1 [Example 80, 3-(cyclopropylmethoxy)-N-(6-(2,4-dioxoimidazolidin-1-yl)hexyl)benzenesulfonamide] | 151% | –
15 | CCOc1cc([C@@H](C)NS(=O)(=O)CCCCCN2CC(=O)NC2=O)ccc1F [Example 82, (R)-5-(2,4-dioxoimidazolidin-1-yl)-N-(1-(3-ethoxy-4-fluorophenyl)ethyl)pentane-1-sulfonamide] | 25% | 3000 nM
16 | C[C@@H](NS(=O)(=O)CCCCCN1CC(=O)NC1=O)c1ccc(F)c(OC2CCC2)c1 [Example 83, (R)—N-(1-(3-cyclobutoxy-4-fluorophenyl)ethyl)-5-(2,4-dioxoimidazolidin-1-yl)pentane-1-sulfonamide] | 37% | 2000 nM
17 | C[C@@H](NS(=O)(=O)CCCOCN1CC(=O)NC1=O)c1cccc(OC2CCCC2)c1 [Example 84, (R)—N-(1-(3-(cyclopentyloxy)phenyl)ethyl)-3-((2,4-dioxoimidazolidin-1-yl)methoxy)propane-1-sulfonamide] | 30% | 2500 nM
18 | C[C@@H](NS(=O)(=O)CCCOCN1CC(=O)NC1=O)c1ccc(F)c(OC2CCCC2)c1 [Example 85, (R)—N-(1-(3-(cyclopentyloxy)-4-fluorophenyl)ethyl)-3-((2,4-dioxoimidazolidin-1-yl)methoxy)propane-1-sulfonamide] | 187% | –
19 | C[C@@H](NS(=O)(=O)CCCCCN1CC(=O)NC1=O)c1ccc(F)c(OC2CCCC2)c1 [Example 86, (R)—N-(1-(3-(cyclopentyloxy)-4-fluorophenyl)ethyl)-5-(2,4-dioxoimidazolidine-1-yl)pentane-1-sulfonamide] | 187% | –
20 | C[C@@H](NS(=O)(=O)CCCCCN1CC(=O)NC1=O)c1ccc(F)c(OCC2COC2)c1 [Example 87, (R)-5-(2,4-dioxoimidazolidin-1-yl)-N-(1-(4-fluoro-3-(oxetane-3-ylmethoxy)phenyl)ethyl)pentane-1-sulfonamide] | 37% | 2000 nM
21 | C[C@@H](NS(=O)(=O)CCCCCN1CC(=O)NC1=O)c1ccc(F)c(OCC2CCC2)c1 [Example 88, (R)—N-(1-(3-(cyclobutylmethoxy)-4-fluorophenyl)ethyl)-5-(2,4-dioxoimidazolidin-1-yl)pentane-1-sulfonamide] | 93% | 800 nM
22 | C[C@@H](NS(=O)(=O)CCCCCN1CC(=O)NC1=O)c1cccc(OC2CCCC2)c1 [Example 89, (R)—N-(1-(3-(cyclopentyloxy)phenyl)ethyl)-5-(2,4-dioxoimidazolidin-1-yl)pentane-1-sulfonamide] | 93% | 800 nM
23 | CC(Oc1cc([C@@H](C)NS(=O)(=O)CCCCCN2CC(=O)NC2=O)ccc1F)C1CC1 (stereo partly drawn) [Example 90, N—((1R)-1-(3-(1-cyclopropylethoxy)-4-fluorophenyl)ethyl)-5-(2,4-dioxoimidazolidin-1-yl)pentane-1-sulfonamide] | 37% | 2000 nM
